# Assay results: article PMC7054763, “Sulfonamide-Based Azaheterocyclic Schiff Base Derivatives as Potential Carbonic Anhydrase Inhibitors: Synthesis, Cytotoxicity, and Enzyme Inhibitory Kinetics” (BioMed Research International, 2020)
# “Also recorded” adds a separate entry of the source.
# How the values were obtained:
# [1] = molecular target: T1, carbonic anhydrase (Bos taurus, UniProt P00921); assay: Carbonic anhydrase (CA) assay; assay type: biochemical; conditions: bovine enzyme, p-nitrophenyl acetate substrate, pH 7.6, 25°C; for IC50: read-out: Carbonic anhydrase IC50 ± SEM
# T1 construct: purchased Sigma-Aldrich
# T1 sequence (P00921 whole entry): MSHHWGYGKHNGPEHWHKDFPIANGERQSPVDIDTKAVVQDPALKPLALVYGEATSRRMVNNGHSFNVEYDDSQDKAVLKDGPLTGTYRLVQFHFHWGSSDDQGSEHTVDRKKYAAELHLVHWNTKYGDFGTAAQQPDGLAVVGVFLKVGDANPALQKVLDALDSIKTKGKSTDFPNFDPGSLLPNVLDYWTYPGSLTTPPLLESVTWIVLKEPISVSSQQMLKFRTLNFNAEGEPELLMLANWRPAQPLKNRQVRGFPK
# [2] = molecular target: T1, carbonic anhydrase; assay: Kinetic analysis (Lineweaver-Burk) of carbonic anhydrase inhibition; assay type: biochemical, bovine
# Protocol: CA inhibition has been determined using some reported methods with a few modifications. […] In brief, 120 microliters of 50 mM Tris-Sulfate buffer (with a pH 7.6 comprising 0.1 mM ZnCl2), twenty μL of (50 U) bovine enzyme, and 20 μL of inhibitor per well makes the reaction mixture. Mixture contents were mixed well before preincubation for ten minutes at 25°C. Para-nitrophenyl acetate substrate (6 mM stock solution by using <5% acetonitrile present in buffer and has been used fresh each time) and forty microliters were taken I each well to reach 0.6 mM concentration per well. The volume of the reaction mixture was diluted to 200 μL. Contents were well mixed after thirty-minute incubation at 25°C, and absorbance results were determined at 348 nm with a microplate reader (SpectraMax ABS, USA). Standard used was acetazolamide. Experiments were performed in triplicate with each concentration. GraphPad Prism 5.0 (GraphPad, San Diego, CA, USA) has been used to calculate IC50 by nonlinear regression. Inhibition (%) = [(B − S)/B] × 100, where S and B are the absorbances of the samples and blank.
# To determine the kinetic parameters of compound 3c, a sequence of experiments have been done. Compound 3c was selected on the basis of IC50 value which was used at different concentrations (0.0, 7.1, 14.2, and 28.4 μM, respectively); the substrate (p-nitrophenyl acetate) concentrations were varied (2, 1, 0.5, 0.25, 0.125, and 0.0625 mM). Other all experimental conditions were just similar as described in the carbonic anhydrase assay segment. The maximum initial velocity has been measured using the starting linear part of absorbance values up to ten minutes at a 1-minute interval. Plots of Lineweaver–Burk on graph between inverse of velocities (1/V) and inverse of concentration of substrate 1/[S] mM^−1 were used in order to find enzyme inhibition type. EI dissociation constant Ki was found by the secondary plot of concentrations of inhibitors versus 1/V.
# [3] = tested on: human keratinocyte (HaCaT) cells; assay: Cell viability assay (MTT) using HaCaT; assay type: cell-based
# Protocol: (§1) The experiment for cell viability studies using MTT (3-(4,5-dimethylthiazol-2yl)-2,5-diphenyltetrazolium bromide) setup has been done to find cytotoxic effects of target compounds. The human keratinocyte (HaCaT) and MCF-7 were cultivated separately in 96-well plates (CGP, gamma sterilized, SPL Korea) with use of complete DMEM consisting of ten percent fetal bovine serum and one percent antibiotics. 5∗10^4 cells per well were incubated for 24 hours before their exposure to a series of dilutions of target derivatives. The analogue 3c was solubilized in DMSO, and DMEM was used for dilution to achieve final concentrations 0, 125, and 250 μM. Then, in the presence of test compounds, cells were incubated again for twenty-four hours at 37 C with 5% carbon dioxide. Now, through the MTT setup, absorbance values at 570 nm were determined by ELISA reader and each experiment was repeated thrice. All data was shown in a mean ± standard deviation pattern, and Student's t-tests were performed to analyze significance of the data. Statistical significance has been assumed (p < 0.005).
# [4] = tested on: MCF-7 cells; assay: Cell viability assay (MTT) using MCF-7; assay type: cell-based, human; conditions: MCF-7, 24 h, 0, 125 and 250 μM
# Protocol: as §1
Structure (SMILES),melting point [°C],Carbonic anhydrase IC50 ± SEM [1],IC50 [1] [µM],other results
"O=S(=O)(N/N=C/c1cccnc1)c1ccccc1 [Compound 3a, (E)-N′-(pyridin-3-ylmethylene)benzenesulfonohydrazide]",176 to 178,No inhibition,–,–
"Cc1cc(C)c(S(=O)(=O)N/N=C/c2cccnc2)c(C)c1 [Compound 3b, (E)-2,4,6-trimethyl-N′-(pyridin-3-ylmethylene)benzenesulfonohydrazide]",173 to 176,No inhibition,–,–
"Cc1ccc(S(=O)(=O)N/N=C/c2cccnc2)cc1 [Compound 3c, (E)-4-methyl-N′-(pyridin-3-ylmethylene)benzenesulfonohydrazide]",168 to 171,–,0.84 ± 0.12,"Vmax ([2]; 3c 7.1 μM): 0.01006 ΔA/min; Vmax ([2]; 3c 14.2 μM): 0.004552 ΔA/min; Vmax ([2]; 3c 28.4 μM): 0.002293 ΔA/min; Inhibition type ([2]; Lineweaver-Burk plots): noncompetitive mode of inhibition; also recorded: noncompetitively; Ki ([2]; secondary plot of Lineweaver-Burk slope versus 3c concentration, read-out: Ki (EI dissociation constant)): 8.6 µM; Cytotoxic effects, HaCaT compared with MCF-7 ([3]; HaCaT versus MCF-7, 250 μM): smaller in case of human keratinocyte (HaCaT) at concentration 250 μM than MCF-7; also recorded: less cytotoxic effects on human keratinocyte cell lines (HaCaT) compared to breast cancer cell lines MCF-7; Cytotoxicity (cell viability) ([3]; HaCaT, 24 h, 0, 125 and 250 μM): caused cytotoxicity in a concentration-dependent manner; Cytotoxicity (cell viability) [4]: caused cytotoxicity in a concentration-dependent manner"
"CC(=O)Nc1ccc(S(=O)(=O)N/N=C/c2cccnc2)cc1 [Compound 3d, (E)-N-(4-((2-(pyridin-3-ylmethylene)hydrazinyl)sulfonyl)phenyl)acetamide]",181 to 184,No inhibition,–,–

# More lines, main results first:
melting point [°C],Carbonic anhydrase IC50 ± SEM [1],IC50 [1] [µM],Structure (SMILES),other results
160 to 164,–,18.9 ± 0.85,"Cc1cc(C)c(S(=O)(=O)N/N=C/c2ccncc2)c(C)c1 [Compound 3e, (E)-2,4,6-trimethyl-N′-(pyridin-4-ylmethylene)benzenesulfonohydrazide]",–
148 to 152,No inhibition,–,"Cc1ccc(S(=O)(=O)N/N=C/c2ccncc2)cc1 [Compound 3f, (E)-4-methyl-N′-(pyridin-4-ylmethylene)benzenesulfonohydrazide]",–
159 to 161,–,59.1 ± 1.68,"Cc1ccc(S(=O)(=O)N/N=C/c2ccccn2)cc1 [Compound 3g, (E)-4-methyl-N′-(pyridin-2-ylmethylene)benzenesulfonohydrazide]",–
156 to 158,–,31.8 ± 1.07,"O=S(=O)(N/N=C/c1ccc[nH]1)c1ccccc1 [Compound 3h, (E)-N′-((1H-pyrrol-2-yl)methylene)benzenesulfonohydrazide]",–
146 to 148,No inhibition,–,"Cc1ccc(S(=O)(=O)N/N=C/c2ccc[nH]2)cc1 [Compound 3i, (E)-N′-((1H-pyrrol-2-yl)methylene)-4-methylbenzenesulfonohydrazide]",–
176 to 179,No inhibition,–,"COc1ccc(S(=O)(=O)N/N=C/c2cc[nH]c2)cc1 [Compound 3j, (E)-N′-((1H-pyrrol-3-yl)methylene)-4-methoxybenzenesulfonohydrazide]",–
